Results reported in US20090156657A1, “ANTI-INFLAMMATORY COMPOSITION” (Ajinomoto Co., Inc., priority 2006, published 2009).

Tests used:
TNF-α mRNA = experiment: IBD model mouse: TNF-α mRNA in large intestine tissue (realtime PCR); assay type: in vivo; settings: IBD model mice, vs Control group, GAPDH internal standard; FIG. 15
From the text: (§1) At the end of the test described in Example 10, the large intestine (caecum—anus) was cut into about 1 cm pieces from the center to the anus side to give 3 sections in total. One of them was fixed with 10% formalin solution and two were frozen in liquid nitrogen. The large intestine fixed with formalin was embedded in paraffin, and sliced to give transversely sectioned specimens. The specimens were stained by a PAS (Periodic acid Schiff) staining method, and histopathological images were observed. On the other hand, total RNA was extracted from the frozen large intestine tissue with ISOGEN (NIPPON GENE CO., LTD.) Total RNA (2 μg) was subjected to a reverse transcription reaction using a SYBR ExScript™ RT-PCR kit (TaKaRa) and, using this as a template, quantitative realtime PCR was performed using IL-1β, TNF-α and GAPDH. The primers used for the analysis were as follows.
Template DNA (2 μl), SYBR Premix Ex Taq™ (TaKaRa, 10 μl), ROX Reference Dye (0.4 μl), 100 μM forward primer (0.04 μl), 100 μM reverse primer (0.04 μl) and sterile water (7.52 μl) were mixed on ice and, using Applied Biosystems 7900HT Fast realtime PCR system, the mixture was heated at 95° C. for 10 seconds, followed by 40 cycles of 95° C., 5 seconds and 60° C., 34 seconds, whereby the DNA was amplified. Using GAPDH as the internal standard, IL-1β and TNF-α expression levels were evaluated.

[1] = tested on: IBD model mice (IL-10 deficient cell-transplanted SCID mice); experiment: Inflammatory bowel disease (IBD) model mouse: large intestine and blood cell counts; assay type: in vivo; settings: diet 3 weeks, vs Control group
From the text: Immunopharmacol., 5, 993-1006 (2005)).
4 days before IL-10 deficient cell transplantation, total 40 SCID mice (7-week-old, were divided into the following 4 groups 1) to 4) (10 mice in each group) and acclimation to a control diet was simultaneously started. Immediately after cell transfer, the feed was changed to the test diet shown in Table 4, and free ingestion was allowed for 3 weeks. The safflower seed extract powder was the same as that in Example 8, and contained 50 wt % of γ-cyclodextrin. N-Feruloylserotonin (FS) was synthesized according to the method of Experimental Example 1. During the test diet ingestion period, the body weight, the amount of ingested feed and the amount of water drunk were measured 3 times a week to monitor the onset of the disease.
1) Normal group (normal SCID mice×control diet) 2) Control group (IL-10 deficient cell-transplanted SCID mice×control diet) 3) SSE group (IL-10 deficient cell-transplanted SCID mice×SSE diet*) 4) FS group (IL-10 deficient cell-transplanted SCID mice×FS diet**) *containing FS and p-coumaroyl serotonin (CS) at 0.10 and 0.13 wt %, respectively (based on aglycone) (total serotonin derivative content=[…]) **containing 0.4 wt % of FS aglycone
After the completion of the test diet ingestion period, blood samples were collected under anesthesia, and the length of the isolated large intestine (appendix—anus) and the weight thereof (after washing the contents) were measured. Using the obtained data, t-test was first conducted between the Normal group and the Control group and, after confirmation of the effectiveness of the test, variance analyses were performed between the Control group and each of SSE and FS groups, and the effect of the test substance was compared by Dunnett-test.

MCP-1 mRNA = MCP-1 mRNA expression in HAEC by real-time PCR; assay type: cell-based, human; settings: 10 μM 24 h, 25 mM glucose 3 h, GAPDH internal standard, FIG. 3B
Procedure: HAEC cells pre-treated with 10 μM of CS or FS for 24 hours were stimulated with 25 mM glucose for 3 hours, and total RNA was extracted with Isogenkit (NIPPON GENE CO., LTD.). From 1 μg of RNA, cDNA was synthesized using 100 U/mL of reverse transcriptase (TAKARA BIO INC.) and 0.1 μM of oligo (dT)-adapter (TAKARA BIO INC.) (total volume of reaction mixture; 50 μL) (42° C., 40 minutes). Real-time PCR was performed using 7300 Real Time PCR system (Applied Biosystems Japan Ltd.) and the PCR product was detected by SYBER Green I.
PCR reaction composition (RT-PCRkit, TAKARA BIO INC.): 12.5 μL Premix Ex Taq, 2.5 μL SYBER Green I, synthesis primer, ROX reference dye, cDNA (corresponding to 20 ng of total RNA), final reaction volume; 25 μL
Primers having the following sequences were used.
PCR was conducted under the following conditions.
thermal denaturation: at 95° C. for 15 seconds, extension reaction: 40 cycles (3 seconds at 95° C., 31 seconds at 60° C.)
Expression amounts of VCAM-1 and MCP-1 mRNA were calculated using GAPDH as the internal standard.

blood NOx = experiment: IBD model mouse: blood NOx concentration; assay type: in vivo; settings: IBD model mice, diet 3 weeks, vs Control group; FIG. 13
Procedure: By the activation of leukocytes in an inflammatory response, a large amount of NO is produced by the cells, and the blood concentration of NOx, a metabolite, increases. It is known that blood NOx concentration becomes one index of inflammatory response in living organisms due to this mechanism (Yuka Ikenoue et al., International Immunopharmacology 5 (2005) 993-1006). The NOx concentration of the blood obtained in Example 10 was measured using an “Nitric Oxide Quantitation Kit (ACTIVE MOTIF)”.

[2] = tested on: large intestine tissue of IBD model mice; experiment: IBD model mouse: large intestine histopathology (PAS staining); assay type: in vivo; settings: vs Control group, FIG. 14
From the text: as §1

Structure (SMILES): COc1cc(/C=C/C(=O)NCCc2c[nH]c3ccc(O)cc23)ccc1O [FS, N-feruloyl serotonin]
- mRNA expression level of TNF-α in large intestine tissue (TNF-α mRNA): tendency toward decrease
- large intestine weight ([1]; FIG. 11B): significantly lower values
- large intestine weight per unit intestine length ([1]; FIG. 11C): significantly lower values
- platelet count ([1]; FIG. 12B): significantly lower
- leukocyte count ([1]; not statistically significant, FIG. 12A): tendency toward lower values
- neutrophil count ([1]; not statistically significant, FIG. 12C): tendency toward lower values
- monocyte count ([1]; not statistically significant, FIG. 12D): tendency toward lower values
- expression amount of MCP-1 mRNA (MCP-1 mRNA): significantly suppressed the increase
- blood NOx concentration (blood NOx): tendency toward decrease
- number of normal goblet cells [2]: increased number of normal goblet cells
- thickening of the large intestine mucosal epithelium [2]: suppressed thickening
